Data published in article PMC13181001 (Communications Medicine, 2026).
Where two headings read alike, the source gives them in different places.

Key:
[1] = biological target: recombinant wild-type and mutated EGFR; experiment: Off-chip mobility shift assay (MSA) at ATP concentrations near Km; assay type: biochemical, human; conditions: ATP concentrations near the Km values for ATP in each recombinant EGFR
Method: The reaction mixtures and test compounds dissolved in dimethylsulfoxide (DMSO) were mixed and incubated for 1 hour at room temperature. The reaction was terminated by adding the Termination Buffer of QuickScout Screening Assist MSA (Carna Biosciences). The reaction mixture was applied to a LabChip system (PerkinElmer), and the product (P) and substrate (S) peptide peaks were separated and quantified. The kinase reaction was evaluated by calculating the product ratio from the peak heights of the P and S peptides (P/(P + S)). […] IC50 values were calculated from the concentration vs %inhibition curves by fitting to a four-parameter logistic curve using Microsoft Excel 2013 with the Solver add-in software.
Supplementary Fig 1. Chemical structure of EGFR-TKIs in the series of pyrrolopyrimidine-quinoline chemical core structure. The chemical structures of TAS3351 (a), TAS3351 analog, […]
the pyrrolopyrimidine-quinoline chemical core structure. Red-highlighted parts of the chemical structures indicate the pyrrolopyrimidine-quinoline. […]
inhibition was measured via Off-chip Mobility Shift Assay (MSA) using recombinant wild-type and mutated EGFR in the ATP concentration relevant to Km values of each human recombinant EGFR. ATP concentrations in the assay in each recombinant EGFR are as follows: wild type, ex19del/T790M, and […]
indicate standard deviation (s.d.) from triplicates. […]

[2] = system: Ba/F3 cell EGFR (ex19del); experiment: Ba/F3-EGFR cell viability assay (CellTiter-Glo); assay type: cell-based, murine; conditions: Mus musculus, BaF3, Mean
Method: (§1) Human full-length EGFR harboring a particular mutation or wild-type EGFR was cloned into the PB-CMV-MCS-EF1-RFP-T2A-Puro PiggyBac vector (System Biosciences) to construct the EGFR PiggyBac vector plasmids. Each EGFR PiggyBac plasmid was simultaneously transfected into Ba/F3 cells with Super PiggyBac Transposase Expression Vector (System Biosciences) using a Nucleofector (Lonza). Afterward, the cells were treated with puromycin to select the cells which were stably integrated EGFR.
(§2) In Ba/F3-EGFR (wild-type) cells, hEGF (FUJIFILM Wako Pure Chemical Corporation) was added at a final concentration of 50 ng/mL. […] The cells were treated with appropriately diluted test compounds in DMSO and incubated for 3 days. Cell viability was analyzed using CellTiter-Glo 2.0 (Promega), according to the manufacturer’s protocol. The IC50 values were calculated by nonlinear regression analysis using XLfit.

[3] = system: Ba/F3 cell EGFR (L858R/T790M/C797S); experiment: Ba/F3-EGFR cell viability assay (CellTiter-Glo); assay type: cell-based, murine; conditions: Mus musculus, BaF3, Mean
Method: as §1, §2

[4] = system: A-431 (wild-type) xenograft; assay type: in vivo, mouse; conditions: at least at doses below 50 mg/kg; once-daily oral
Method: The tumor volumes were calculated using the following equation: Tumor Volume (mm^3) = 0.5 × major axis (mm) × minor axis (mm) × minor axis (mm). […] Tukey’s test (SAS with EXSUS) was used to evaluate statistical significance (p ≥ 0.05) on the logarithmically transformed mean tumor volume in each allocated group on Days 0 or 1, and no statistical significance was confirmed before initiating the experiments. During the experiments, the mice in each labeled cage were identified by the position of the cut on their pinnae. The test compounds were administered orally at a dose of 10 mL/kg. The tumor volume and body weight of each mouse were measured once every 2–5 days. The application of the humane endpoints was determined primarily based on tumor volume, body weight change, and systemic physical condition. […]
The statistical analyses were performed with SAS (SAS Institute Inc., ver. 9.4) in an EXSUS (EPS Corporation, ver. 10.0.3) environment. In the studies of subcutaneous tumor-transplant mouse models, the difference in mean tumor volume between each treated group and the control group was analyzed using Dunnett’s test. In the study of intracranial tumor transplanted mouse models, the difference of the mean logarithmically transformed total flux of each treated group with that of the control group was evaluated with Dunnett’s test.

[5] = system: pEGFR, pAkt, pErk1/2 in NCI-H1975 xenograft tumors; experiment: Pharmacodynamic marker analysis (immunoblotting) in NCI-H1975 xenograft tumors; assay type: in vivo, mouse; conditions: for phosphorylation of EGFR, Akt, and Erk1/2 in tumor: 24 h
Method: Frozen tumor samples were homogenized in cold RIPA buffer (Thermo Fisher Scientific) supplemented with PhosSTOP (Merck KGaA) and cOmplete, Mini, EDTA-free Protease Inhibitor Cocktail (Merck KGaA) using Multi-beads Shocker (Yasui Kikai Corporation). The tumor protein extracts obtained via centrifugation of the supernatants were stored on ice until the assay. The protein concentration of the extracts was determined using BCA Protein Assay (Thermo Fisher Scientific), according to the manufacturer’s protocol. The protein concentration of the extracts was adjusted to 1 mg/mL using RIPA buffer and Lane Marker Reducing Sample Buffer (Thermo Fisher Scientific) to prepare SDS-PAGE samples; afterward, the samples were denatured by heating at 98 °C for 5 min. After cooling to room temperature, the extracts and samples were frozen until SDS-PAGE analysis. 5 μg/lane of each SDS-PAGE sample was subjected to SDS-PAGE analysis using 7.5% polyacrylamide gels (Bio-Rad Laboratories) and transferred to polyvinylidene difluoride (PVDF) membranes using a Trans-Blot Turbo Transfer System (Bio-Rad Laboratories). Membranes were blocked with the PVDF Blocking Reagent for Can Get Signal (TOYOBO). After blotting with primary antibodies, the membranes were incubated with horseradish peroxidase (HRP)-conjugated secondary antibodies. The antibodies were diluted in Can Get Signal Solution1/2 (TOYOBO) according to the manufacturer’s protocol. […] All antibodies were diluted to a concentration of 1:1000.

[6] = Assessment of brain penetrability in mice (plasma and brain PK); assay type: in vivo; conditions: BALB/cAJcl-nu/nu, mouse; for AUC(0-t): plasma, male nude mice, read-out: AUC0-24 hr Plasma; for Kp uu / Kp: male, oral; for Kp uu: brain, unbound brain AUC / unbound plasma AUC; for Kp: brain AUC0-24 hr / plasma AUC0-24 hr
Method: Prior to the study, the animal use protocol was reviewed and approved by the Institutional Animal Care and Use Committee in Sekisui Medical Co., Ltd., and the study was conducted in accordance with the regulations and guidelines of animal experiments specified by the Testing Facility in Sekisui Medical Co., Ltd. On the day of administration, the mice were assigned to groups by the stratification body weight average method. […] After centrifugation of the blood samples, the collected plasma samples were stored in an ultra-low-temperature freezer until the analysis. At the same time, the brain samples also collected, weighed, and mixed with PBS at ratio of 1:3 (w/v). After adding zirconia beads to the container, the brain samples were homogenized with Shake Master Auto (Biomedical Science) for 3 min to prepare the brain homogenate. The homogenate samples were stored in an ultra-low-temperature freezer until the analysis. […] The areas under the concentration-time curve from 0 to 24 h (AUC0-24 hr) of plasma and brain were calculated from mean concentration values using Phoenix WinNonlin 8.1 (Certara). Kp,brain was determined by dividing the total brain AUC0-24 hr by the total plasma AUC0-24 hr. Kp,uu,brain was determined by dividing the unbound brain AUC0-24 hr by the unbound plasma AUC0-24 hr, and the unbound AUC0-24 hr was determined by multiplying the total AUC0-24 hr by the respective tissue unbound fraction.

[7] = system: NIH/3T3-EGFR (ex19del/T790M/C797S)-luc cells; experiment: Intracranial tumor transplanted mouse allograft model; assay type: in vivo; conditions: 20 and 40 mg/kg; with statistical significance
Method: Male nude mice (BALB/cAJcl-nu/nu, 6 weeks old, microbiological grade: Specific pathogen free, CLEA Japan) were each head-fixed under anesthesia with a stereotaxic apparatus, and 2 μL of the cell suspension was injected at 0.5 mm anterior, 2.0 mm right, and 3.5 mm deep from the bregma, whereby 1.0 × 10^4 cells per mouse were transplanted. The mice were anesthetized with an intraperitoneal injection of the MMB mixed agent, a saline with 0.075 mg/mL medetomidine hydrochloride (Nippon Zenyaku Kogyo CO., Ltd.), 0.4 mg/mL midazolam (Fuji Pharma Co., Ltd.), and 0.5 mg/mL butorphanol tartrate (Meiji Seika Pharma Co., Ltd.), at a volume of 10 mL/kg body weight. Propeto (Maruishi Pharmaceutical Co., Ltd.) was applied to the eyeballs to prevent drying during the transplantation. The day of cell transplantation was defined as day 0. 150 mg/kg Luciferin (Promega Corporation) was intraperitoneally administered to measure the level of luminescence (photons/s) using an IVIS Lumina II Imaging System (PerkinElmer) on days 8, 13, and 19. Mice were anesthetized with isoflurane and placed in the prone position in the IVIS Lumina II Imaging System chamber. […] The total flux in the region of interest of the head was calculated using Living Image software (version 3.2.0.7800). […] The application of the humane endpoints was determined primarily based on body weight change, behavior, and systemic physical condition. […]

255 kinases = experiment: Kinome-wide selectivity, Off-chip Mobility Shift Assay; assay type: biochemical; conditions: 20 nmol/L
Method: However, the potential secondary effects of the pharmacological inhibition of these eight kinases, with IC50 values below that of the wild-type EGFR, remain to be elucidated.
Supplementary Fig 3. […] The […]
plasmon resonance (SPR) analysis with single-cycle kinetics. KD values were calculated via curve fitting with 1:1 binding model or steady-state affinity evaluation. Mean KD values and standard deviation (s.d.) obtained from three independent experiments are shown.
Supplementary Fig 4. Kinome-wide selectivity of TAS3351. […]
determination of the IC50 values. […]

[8] = Body weight evaluation in allograft and xenograft mouse models; assay type: in vivo; conditions: once-daily oral administration; NIH/3T3-EGFR allograft models (Fig. 5a–d)
Method: The tumor volumes were calculated using the following equation: Tumor Volume (mm^3) = 0.5 × major axis (mm) × minor axis (mm) × minor axis (mm). […] Tukey’s test (SAS with EXSUS) was used to evaluate statistical significance (p ≥ 0.05) on the logarithmically transformed mean tumor volume in each allocated group on Days 0 or 1, and no statistical significance was confirmed before initiating the experiments. During the experiments, the mice in each labeled cage were identified by the position of the cut on their pinnae. The test compounds were administered orally at a dose of 10 mL/kg. The tumor volume and body weight of each mouse were measured once every 2–5 days. The application of the humane endpoints was determined primarily based on tumor volume, body weight change, and systemic physical condition. For Pharmacodynamics Marker (PD) analysis, the mice were randomized into groups based on tumor volume when the average tumor volume reached approximately 400–600 mm^3, following the previously described procedure, including the identification of individual mice. […] Tumor samples were excised and placed in homogenate tubes, frozen in liquid nitrogen, and stored in an ultra-low temperature freezer set at −80 °C until use.
Based on the predefined humane endpoint criteria for this study, †each animal in vehicle control and
under anesthesia on day 8. […]

[9] = system: EGFR harboring L718Q and L718V; experiment: Inhibitory spectrum against other osimertinib-resistant mutations (author rebuttal); conditions: data not shown
[10] = system: P-gp and BCRP in Caco-2 cells
[11] = biological target: human recombinant EGFR Ex19del (Homo sapiens, UniProt P00533, DEL746-750); experiment: EGFR biochemical kinetics assay (PhosphoSens Kinase Assay), Ki
[12] = biological target: human recombinant EGFR Ex19del/T790M (Homo sapiens, UniProt P00533, DEL746-750/T790M); experiment: as above
[13] = biological target: human recombinant EGFR Ex19del/T790M/C797S (Homo sapiens, UniProt P00533, C797S/DEL746-750/T790M); experiment: as above
[14] = biological target: human recombinant EGFR L858R (Homo sapiens, UniProt P00533, L858R); experiment: as above
[15] = biological target: human recombinant EGFR L858R/T790M (Homo sapiens, UniProt P00533, L858R/T790M); experiment: as above

C#Cc1c(-c2cnc3ccccc3c2)c2c(N)ncnc2n1C12CCC(NC(=O)c3cnc(C)cn3)(CC1)C2 [TAS3351]
IC50 values [1]: sub-nanomolar range
IC50 [2]: 2.84 nM
IC50 [3]: 241 nM
inhibition of xenograft growth [4]: did not demonstrate statistically significant inhibition of xenograft growth
phosphorylation of EGFR, Akt, and Erk1/2 in tumor ([5]; 40 mg/kg single oral): restored to nearly baseline
phosphorylation of EGFR, Akt, and Erk1/2 in tumor ([5]; 80 mg/kg single oral): partially inhibited
phosphorylation of EGFR, Akt, and Erk1/2 in tumor vs control ([5]; 40 and 80 mg/kg single oral, 1–8 h post-administration): significantly reduced
AUC(0-t) ([6]; 20 mg/kg single oral): 72.5 µM·h
AUC(0-t) ([6]; 40 mg/kg single oral): 202 µM·h
AUC(0-t) ([6]; 80 mg/kg single oral): 377 µM·h
Kp uu ([6]; 20 mg/kg): 0.68
Kp uu ([6]; 40 mg/kg): 1.08
Kp uu ([6]; 80 mg/kg): 1.47
Kp ([6]; 20 mg/kg): 0.32
Kp ([6]; 40 mg/kg): 0.51
Kp ([6]; 80 mg/kg): 0.69
intracranial luciferase activity (total flux) vs vehicle [7]: reduced intracranial luciferase activity
number of kinases whose enzymatic activity was inhibited by over 50% (255 kinases): 26
body weight [8]: without apparent body weight loss
efficacy against EGFR harboring L718Q and L718V [9]: not effective
P-gp or BCRP substrate [10]: not a P-gp or BCRP substrate
Ki [11]: 0.0048 nM
Ki [12]: 0.00649 nM
Ki [13]: 0.018 nM
Ki [14]: 0.259 nM
difference in the Ki values between ex19del and L858R mutations ([14]; L858R vs ex19del): over 50 fold
Ki [15]: 0.224 nM
